Measurements published in the supplement of paper PMC10307832.

Experiments:
Assay in all cases: relative viability (nuclei count vs DMSO), 5 days (fraction); higher = more cells survive
[1] = compound: C1/C(=C\C2=CC=CS2)/C(=O)/C(=C/C3=CC=CS3)/C1 + N=C(N)NC(=N)NCCc1ccccc1 [Phenformin] (partner 250 µM)
Outline: (§1)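 Lung cancer cell lines in 1536-well plates were dosed by pin tool the day after seeding, either with one drug alone or with a fixed anchor-drug dose plus five library-drug doses (not always all listed) in √10 steps. After 5 days, cells were fixed and their nuclei stained in one step (final 0.05% Triton X-100, 1% formaldehyde, 1 ug/ml Hoechst), then counted on 4× images. Relative viability is the nuclei count in treated wells divided by that in vehicle wells. Values are medians of duplicate plates.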

[2] = compound: C1=CC(=CC=C1C2=CC(=C(S2)NC(=O)N)C(=O)N)F [TPCA-1] + CS(=O)(=O)CCNCc1ccc(-c2ccc3ncnc(Nc4ccc(OCc5cccc(F)c5)c(Cl)c4)c3c2)o1 [Lapatinib] (partner 2 µM)
Outline: as §1

[3] = compound: C[C@]12O[C@H](C[C@]1(O)CO)n1c3ccccc3c3c4c(c5c6ccccc6n2c5c31)CNC4=O [Lestaurtinib] + N=C(N)NC(=N)NCCc1ccccc1 [Phenformin] (partner 250 µM)
Outline: as §1

[4] = compound: C[C@]12O[C@H](C[C@]1(O)CO)n1c3ccccc3c3c4c(c5c6ccccc6n2c5c31)CNC4=O [Lestaurtinib] + O=C(c1cc(Cc2n[nH]c(=O)c3ccccc23)ccc1F)N1CCN(C(=O)C2CC2)CC1 [Olaparib] (partner 8 µM)
Outline: as §1

Row | Cell Line | relative viability ([1]; first compound 0.2 µM) | relative viability ([1]; first compound 0.6325 µM) | relative viability ([1]; first compound 2 µM) | relative viability ([1]; first compound 6.325 µM) | relative viability ([1]; first compound 20 µM) | relative viability ([2]; first compound 0.04 µM) | relative viability ([2]; first compound 0.1265 µM) | relative viability ([2]; first compound 0.4 µM) | relative viability ([2]; first compound 1.265 µM) | relative viability ([2]; first compound 4 µM) | relative viability ([3]; first compound 0.005 µM) | relative viability ([3]; first compound 0.01581 µM) | relative viability ([3]; first compound 0.05 µM) | relative viability ([3]; first compound 0.1581 µM) | relative viability ([3]; first compound 0.5 µM) | relative viability ([4]; first compound 0.005 µM) | relative viability ([4]; first compound 0.01581 µM) | relative viability ([4]; first compound 0.05 µM) | relative viability ([4]; first compound 0.1581 µM) | relative viability ([4]; first compound 0.5 µM)
1 | NCI-H2023 | 0.414 | 0.488 | 0.439 | 0.396 | 0.383 | 1.1 | 0.78 | 1.14 | 0.528 | 0.133 | 0.451 | 0.451 | 0.343 | 0.344 | 0.144 | 0.519 | 0.493 | 0.578 | 0.364 | 0.18
2 | NCI-H2085 | 0.81 | 0.791 | 0.839 | 0.619 | 0.644 | 0.825 | 0.732 | 0.889 | 0.7 | 0.646 | 0.716 | 0.664 | 0.602 | 0.65 | 0.492 | 0.804 | 0.755 | 0.835 | 0.935 | 0.84
3 | NCI-H2087 | 0.5 | 0.546 | 0.553 | 0.393 | 0.431 | 1.08 | 0.914 | 0.905 | 0.798 | 0.247 | 0.462 | 0.44 | 0.43 | 0.416 | 0.344 | 0.589 | 0.725 | 0.559 | 0.673 | 0.309
4 | NCI-H2126 | 0.549 | 0.551 | 0.566 | 0.483 | 0.536 | 0.827 | 0.736 | 0.808 | 0.749 | 0.669 | 0.525 | 0.565 | 0.482 | 0.412 | 0.326 | 1.03 | 0.971 | 0.812 | 0.852 | 0.842
5 | NCI-H2170 | 0.466 | 0.484 | 0.426 | 0.405 | 0.408 | 0.263 | 0.272 | 0.261 | 0.284 | 0.248 | 0.41 | 0.424 | 0.42 | 0.32 | 0.244 | 0.551 | 0.596 | 0.407 | 0.45 | 0.206
6 | NCI-H2228 | 0.422 | 0.297 | 0.369 | 0.335 | 0.357 | 1.54 | 0.867 | 1.32 | 0.853 | 0.537 | 0.235 | 0.215 | 0.237 | 0.218 | 0.127 | 0.644 | 0.455 | 0.318 | 0.432 | 0.137
7 | NCI-H2347 | 0.362 | 0.592 | 0.283 |  | 0.49 | 1.07 | 0.739 | 0.963 | 0.78 | 0.896 | 0.304 | 0.448 | 0.316 | 0.309 | 0.39 | 0.567 | 0.639 | 0.581 | 0.529 | 0.607
8 | NCI-H2405 | 0.404 | 0.386 | 0.441 | 0.413 | 0.402 | 1.19 | 0.915 | 1.1 |  | 0.949 | 0.426 | 0.392 | 0.387 | 0.28 | 0.284 | 0.98 | 1.01 | 0.913 | 0.846 | 0.486
9 | NCI-H3122 | 0.442 | 0.377 | 0.41 | 0.307 | 0.333 | 1.03 | 0.939 | 0.985 | 1.05 | 0.976 | 0.365 | 0.431 | 0.372 | 0.363 | 0.175 | 0.862 | 0.637 | 0.552 | 0.598 | 0.5
10 | PC-3 [JPC-3] | 0.494 | 0.495 | 0.452 | 0.423 | 0.458 | 0.435 | 0.487 | 0.481 | 0.454 | 0.434 | 0.434 | 0.504 | 0.352 | 0.477 | 0.386 | 1.2 | 1.3 | 0.818 | 1.03 | 0.698
11 | PC-14 | 0.823 | 0.762 | 0.611 | 0.539 | 0.631 | 0.336 | 0.327 | 0.321 | 0.394 | 0.299 | 0.445 | 0.871 | 0.633 | 0.353 | 0.106 | 0.252 | 0.243 | 0.242 | 0.238 | 0.179
12 | RERF-LC-KJ | 0.407 | 0.461 | 0.474 | 0.432 | 0.432 | 0.966 | 0.79 | 0.808 | 0.809 | 0.765 | 0.448 | 0.38 | 0.391 | 0.419 | 0.295 | 1.13 | 1.07 | 0.961 | 0.952 | 0.399
13 | SK-LU-1 | 0.634 | 0.56 | 0.672 | 0.473 | 0.486 | 0.799 | 0.841 | 0.888 | 0.698 | 0.569 | 0.46 | 0.488 | 0.293 | 0.329 | 0.163 | 0.431 | 0.397 | 0.382 | 0.362 | 0.218
14 | SK-MES-1 | 0.722 | 0.742 | 0.605 | 0.644 | 0.546 | 0.479 | 0.402 | 0.429 | 0.471 | 0.34 | 0.693 | 0.59 | 0.484 | 0.441 | 0.186 | 0.782 | 0.676 | 0.448 | 0.33 | 0.175
15 | SW 1573 | 0.397 | 0.412 | 0.355 | 0.363 | 0.398 | 0.829 | 1.04 | 1.17 | 1.18 | 1.19 | 0.421 | 0.439 | 0.214 | 0.28 | 0.0937 | 0.554 | 0.567 | 0.451 | 0.383 | 0.145
